According to ChEMBL document CHEMBL1201862, “PubChem BioAssay data set” (2004):
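Growth conditions: 96-well plates. Treatment: test compound, 48 hours, 5 concentrations. Analysis: linear interpolation between bracketing concentrations; unreached endpoints set to highest concentration. Abbreviation: GI50, concentration required for 50% inhibition of growth.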 Active and inactive are the calls of the source. No stated cut-off is given here; in the data, active = GI50 up to about 1.1 µM and inactive = higher.

Legend:
Experiment in all cases: NCI-60 cell line screen, 48 h
NCI-H460 = system: NCI-H460
Hs-578T = system: Hs-578T
SF-268 = system: SF-268
ACHN = system: ACHN
SNB-75 = system: SNB-75
HCT-15 = system: HCT-15
UACC-62 = system: UACC-62
HCT-116 = system: HCT-116
Malme-3M = system: Malme-3M
SK-MEL-5 = system: SK-MEL-5
TK-10 = system: TK-10
OVCAR-4 = system: OVCAR-4
HT-29 = system: HT-29
EKVX = system: EKVX
SN12C = system: SN12C
NCI-H226 = system: NCI-H226
RPMI-8226 = system: RPMI-8226
HOP-62 = system: HOP-62
MDA-MB-435 = system: MDA-MB-435
IGROV-1 = system: IGROV-1

CCCCNc1nc2ccccc2c2c1ncn2CC(C)C
GI50 (NCI-H460): > 100 µM (inactive)
GI50 (Hs-578T): > 100 µM (inactive)
GI50 (SF-268): > 100 µM (inactive)
GI50 (ACHN): > 100 µM (inactive)
GI50 (SNB-75): > 100 µM (inactive)
GI50 (HCT-15): > 100 µM
GI50 (UACC-62): > 100 µM (inactive)
GI50 (HCT-116): > 100 µM (inactive)
GI50 (Malme-3M): > 100 µM (inactive)
GI50 (SK-MEL-5): > 100 µM (inactive)
GI50 (TK-10): > 100 µM (inactive)
GI50 (OVCAR-4): > 100 µM (inactive)
GI50 (HT-29): > 100 µM (inactive)
GI50 (EKVX): > 100 µM (inactive)
GI50 (SN12C): > 100 µM (inactive)
GI50 (NCI-H226): > 100 µM (inactive)
GI50 (RPMI-8226): > 100 µM (inactive)
GI50 (HOP-62): > 100 µM (inactive)
GI50 (MDA-MB-435): > 100 µM (inactive)
GI50 (IGROV-1): > 100 µM (inactive)
